The assay has as its system 699152-130-R-J1-PDC complex spheroid growth. As to the kind of experiment: Anticancer human tumor 699152-130-R-J1-PDC patient-derived pancreatic carcinoma cell line growth inhibition [AhR]. As to conditions: for viability, T/C: stronger effect = lower value. An excerpt:
Multicellular complex tumor spheroid response to aryl hydrocarbon receptor antagonists in combination with a variety of drugs and investigational agents in selected tumor cell lines
The current study was undertaken to assess response to aryl hydrocarbon receptor antagonists in combination with standard-of-care drugs and investigational agents in solid tumor complex spheroid models. Complex spheroids include a stromal component modeled by human endothelial cells (HUVEC) and fibroblasts modeled by human mesenchymal stem cells (MSCs). The concentration ranges selected for each drug and investigational agent were based upon clinically achievable concentrations if the clinical Cmax of the agent was known.
Compounds. The drugs and investigational agents: BAY 2416964 (NSC825713), GNF351 (NSC835774), CH-223191 (NSC835775), CPI-455 (NSC825282), aza-TdCyd (NSC777586), decitabine (NSC127716), belinostat (NSC758774), entinostat (NSC756642), pevonedistat (NSC761192), tazemetostat (NSC777109), talazoparib (NSC765396), olaparib (NSC753686), selinexor (NSC780203), nedisertib (M3814, NSC802822), bortezomib (NSC756655), venetoclax (NSC766270), doxorubicin (NSC123127), elimusertib (BAY189344, NSC800525), ceralasertib (AZD6738, NSC777638), TAK-243 (NSC785004), alisertib (NSC759677), etoposide (NSC141540), topotecan (NSC609699), eribulin (NSC707389), gemcitabine (NSC613327), carboplatin (NSC241240), cisplatin (NSC119875), and SN-38 (NSC673596) were obtained from the National Cancer Institute (NCI) Developmental Therapeutics Program Chemical Repository (32). The FDA-approved anticancer drug set is available from the Developmental Therapeutics Program at https://dtp.cancer.gov/organization/dscb/obtaining/available plates.htm. […] The stock solutions were prepared in dimethyl sulfoxide (DMSO, Sigma-Aldrich, St. Louis, MO, cat. D2650), except for the platinum compounds which were prepared in saline (Quality Biological, Gaithersburg, MD, cat. 114-055-101), at 800-fold the tested concentration and stored at -70 degrees C prior to their use. All drugs and investigational agents were tested over a range starting from a high concentration at or near the clinical Cmax and decreasing in half-log increments. If the clinical Cmax for an agent had not been determined, the highest concentration tested was 10 microM (Table 1).
Cell Culture. All cells were maintained in an incubator at 37 degrees C and 5% CO2 with 95% humidity. The PDC lines were cultured according to standard operating procedures established by the NCI PDMR (https://pdmr.cancer.gov). Briefly, all PDCs were thawed and cultured in Matrigel-coated flasks prepared with a working solution of 1X Ham's F-12 nutrient mix, without supplementation (Invitrogen, Waltham, MA, cat. 11765054), 100 U/mL penicillin-streptomycin (Invitrogen, cat. 15140122), and 2.5% Matrigel (Corning Inc., Corning, NY, cat. 354248) for the first three passages. All PDCs were cultured in complete DMEM/F-12 media containing advanced DMEM/F-12 (Invitrogen, cat. 12634028), 4.9% defined fetal bovine serum, heat inactivated (HyClone Laboratories Inc., Logan, UT, cat. SH30070.03HI), 389 ng/mL hydrocortisone (Sigma-Aldrich, cat. H4001), 9.7 ng/mL human EGF recombinant protein (Invitrogen, cat. PHG0313), 23.4 microg/mL adenine (Sigma-Aldrich, cat. A2786), 97.3 U/mL penicillin-streptomycin (Invitrogen, cat. 15140122), 1.9 mM L-glutamine (Invitrogen, cat. 25030081), and 9.7 microM Y-27632 dihydrochloride (Tocris Bioscience, Bristol, United Kingdom, cat. 1254). The PDCs were cultured in complete DMEM/F12 media without 10 microM Y-27632 dihydrochloride for at least two passages prior to the screen. The established cell lines NCI-H1341 and […] were cultured in DMEM/F-12, HEPES (Invitrogen, cat. 11330032), 5% defined fetal bovine serum (HyClone Laboratories Inc., cat. SH30070.03), ITS premix universal culture supplement [insulin (5 microg/mL), transferrin (5 microg/mL), and selenious acid (5 ng/mL)] […]

Where [1] appears, read: curve of first compound, second compound 0.1 µM.
Setting [2] is: curve of first compound, second compound 0.316 µM.
Where [3] appears, read: curve of first compound, second compound 1 µM.
The mark [4] stands for this setting: curve of first compound, second compound 3.16 µM.
Where [5] appears, read: curve of first compound, second compound 10 µM.

pIC50: −log10 of the molar value. Where “and” joins values, the source holds several entries; their conditions need not be identical. Identical values can stand only once.
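Note: compound exposure lasted 7 days after spheroids had grown for 3 days.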

By pIC50 is commonly meant the negative decadic logarithm of the IC50, by convention in mol/L. In general, viability, T/C refers to the result in the treated group divided by that in the control group, in per cent. Turning to `CC(C)CC(NC(=O)C(Cc1ccccc1)NC(=O)c1cnccn1)B(O)O` (stereo not drawn) + Cc1cncc(-c2nc(NCCc3c[nH]c4ccccc34)c3ncn(C(C)C)c3n2)c1, the negative-log IC50 (pIC50) is 7.82 under setting [1]; 7.79 under setting [2]; 7.77 under setting [3]; 7.80 under setting [4]; above 9.02 under setting [5]. Moreover, the viability, T/C by setting is: (second compound 0.1 µM, first compound 0.000949 µM) 107%; (second compound 0.1 µM, first compound 0.003 µM) 104%; (second compound 0.1 µM, first compound 0.00949 µM) 82.4%; (second compound 0.1 µM, first compound 0.03 µM) 1.43%; (second compound 0.1 µM, first compound 0.0949 µM) 2.12%; (second compound 0.1 µM, first compound 0.3 µM) 0.56%. Further, the viability, T/C reads like this: (second compound 0.316 µM, first compound 0.000949 µM) 99.4%; (second compound 0.316 µM, first compound 0.003 µM) 112%; (second compound 0.316 µM, first compound 0.00949 µM) 93.8%; (second compound 0.316 µM, first compound 0.03 µM) 0.83%; (second compound 0.316 µM, first compound 0.0949 µM) 0.54%; (second compound 0.316 µM, first compound 0.3 µM) 0.39%. Also, the viability, T/C runs as follows: (second compound 1 µM, first compound 0.000949 µM) 119%; (second compound 1 µM, first compound 0.003 µM) 111%; (second compound 1 µM, first compound 0.00949 µM) 100%; (second compound 1 µM, first compound 0.03 µM) 0.8%; (second compound 1 µM, first compound 0.0949 µM) 0.31%; (second compound 1 µM, first compound 0.3 µM) 0.34%. Also, the viability, T/C is, setting by setting: (second compound 3.16 µM, first compound 0.000949 µM) 80.3%; (second compound 3.16 µM, first compound 0.003 µM) 92.8%; (second compound 3.16 µM, first compound 0.00949 µM) 91.3%; (second compound 3.16 µM, first compound 0.03 µM) 0.56%; (second compound 3.16 µM, first compound 0.0949 µM) 0.26%; (second compound 3.16 µM, first compound 0.3 µM) 0.31%. The viability, T/C by setting is: (second compound 10 µM, first compound 0.000949 µM) 10.4%; (second compound 10 µM, first compound 0.003 µM) 12.2%; (second compound 10 µM, first compound 0.00949 µM) 5.17%; (second compound 10 µM, first compound 0.03 µM) 0.33%; (second compound 10 µM, first compound 0.0949 µM) 0.3%; (second compound 10 µM, first compound 0.3 µM) 0.39%.
In the case of `Cc1ccccc1N=Nc1ccc(NC(=O)c2ccnn2C)c(C)c1`, the pIC50 (compound alone, run of 07/26/2022) is below 5.00.
Take `O=C(c1cc(Cc2n[nH]c(=O)c3ccccc23)ccc1F)N1CCN(C(=O)C2CC2)CC1` + CC(CO)NC(=O)c1cc(-c2ccc(Cl)cc2)nn(-c2cnn(C)c2)c1=O: the pIC50 is, setting by setting: under setting [1], below 5.00; under setting [2], below 5.00; under setting [3], below 5.00; under setting [4], below 5.00; under setting [5], below 5.00. The viability, T/C by setting is: (second compound 0.1 µM, first compound 0.0316 µM) 85.1%; (second compound 0.1 µM, first compound 0.1 µM) 107%; (second compound 0.1 µM, first compound 0.316 µM) 93.3%; (second compound 0.1 µM, first compound 1 µM) 81.8%; (second compound 0.1 µM, first compound 3.16 µM) 97%; (second compound 0.1 µM, first compound 10 µM) 89.5%. Further, the viability, T/C by setting is: (second compound 0.316 µM, first compound 0.0316 µM) 93%; (second compound 0.316 µM, first compound 0.1 µM) 88.3%; (second compound 0.316 µM, first compound 0.316 µM) 88.8%; (second compound 0.316 µM, first compound 1 µM) 87.7%; (second compound 0.316 µM, first compound 3.16 µM) 77.3%; (second compound 0.316 µM, first compound 10 µM) 78%. For the same compound, the viability, T/C is 87.6% (second compound 1 µM, first compound 0.0316 µM); 95.9% (second compound 1 µM, first compound 0.1 µM); 93.4% (second compound 1 µM, first compound 0.316 µM); 86.6% (second compound 1 µM, first compound 1 µM); 85.5% (second compound 1 µM, first compound 3.16 µM); 77.4% (second compound 1 µM, first compound 10 µM). For the same compound, the viability, T/C by setting is: (second compound 3.16 µM, first compound 0.0316 µM) 82.8%; (second compound 3.16 µM, first compound 0.1 µM) 93.1%; (second compound 3.16 µM, first compound 0.316 µM) 85.5%; (second compound 3.16 µM, first compound 1 µM) 80.5%; (second compound 3.16 µM, first compound 3.16 µM) 65.6%; (second compound 3.16 µM, first compound 10 µM) 69.7%. Moreover, the viability, T/C is 84.3% (second compound 10 µM, first compound 0.0316 µM); 83.1% (second compound 10 µM, first compound 0.1 µM); 80% (second compound 10 µM, first compound 0.316 µM); 75.3% (second compound 10 µM, first compound 1 µM); 79.3% (second compound 10 µM, first compound 3.16 µM); 69.9% (second compound 10 µM, first compound 10 µM).
Turning to `O=C(C=Cn1cnc(-c2cc(C(F)(F)F)cc(C(F)(F)F)c2)n1)NNc1cnccn1`, the viability, T/C by setting is: (compound 0.00949 µM) 99.1% and 89.9% and 89%; (compound 0.03 µM) 98.2% and 95.7% and 107%; (compound 0.0949 µM) 92% and 79.8% and 82.9%; (compound 0.3 µM) 73.7% and 77.4% and 74.8%; (compound 0.949 µM) 69.4% and 79.6% and 90%; (compound 3 µM) 77.4% and 72.9% and 69.9%. In addition, under “curve of compound”, the pIC50 is below 5.52.

Values taken from PubChem BioAssay AID1919001 (Molecular Pharmacology Branch, DTP, NCI, 2023).
